Data published in patent US11471460B2, “Autophagy modulators for use in treating cancer” (The United States of America,as represented by the …, priority 2017, dated 2022).

Experiments:
osteosarcoma U2OS cells = experiment: U2OS cell proliferation; assay type: cell-based, human
Excerpt: These effects are dependent on the compound selected, its concentration and the length of time cells are exposed to the compound.
(§1) Cells were obtained from the American Type Culture Collection. BORCS5-KO HeLa cells have been described previously. Osteosarcoma U2OS were routinely seeded in 6-well plates (0.5×10^5 cells/well) and cultured in Dulbecco's Modified Eagle's medium supplemented with L-Glutamine, 4.5 g/L Glucose, Sodium Pyruvate, Phenol Red, and either heat-inactivated or normal 10% fetal calf serum at 37° C. in 5% CO2. Approximately 15-19 hours later, the indicated compound was added in 1:1000 dilutions. Results were the same using either heat-inactivated or normal fetal calf serum. Melanoma A375, embryonic kidney 293T and human foreskin fibroblast Hs27 cells were cultured in the same medium, except that cells were seeded into 12-well plates at 10^3 cells/well.

[1] = Viability of A375 cells after pretreatment, trypan blue exclusion; assay type: cell-based; details: human, A375 melanoma cells, vehicle 94%, read-out: Viable cells after pretreatment
Excerpt: Viability was quantified by trypan blue dye exclusion method. The images confirmed the presence of cytoplasmic vacuolization occurred only in the compound 1 treated cells. […] The left flank received cells pretreated with vehicle and the right flank received cells pretreated with compound 1. At 27 days later, mice were photographed, and tumors excised. […] Error bars indicate the SEM for 5 tumors.
To determine whether or not compound 1 could inhibit progression of a tumor that arose from autophagy-dependent cancer cells, melanoma A375 cells were pretreated with either vehicle or compound 1 and then assayed for their ability to produce a tumor. Pretreatment consisted of culturing A375 cells for 8 hours with 10 μM compound 1. The cells were then recovered by trypsinization and their viability confirmed by trypan blue exclusion. […] The cells were then inoculated subcutaneously into the flanks of immuno-compromised mice.

PIKFYVE = target: T1, PIKFYVE (Homo sapiens, UniProt Q9Y2I7); experiment: DiscoverX KINOMEscan dissociation constant; assay type: binding
T1 construct: purchased DiscoverX (KINOMEscan service, San Diego, Calif.)
Protocol: Each kinase was tagged with a unique DNA sequence that allowed the amount of protein bound to the solid support to be quantified by PCR. The top three targets for compound 1 were PIKFYVE, PIP4K2C and MTOR. […] Dissociation constants (Kd) were determined from the amount of kinase captured on the solid support as a function of the test compound concentration (nM) on a log10 scale. Mean Kd values (±range) are given for each compound. The ratio of PIP4K2C to PIKFYVE indicates the relative specificity for these two kinases.
To address this hypothesis, a panel of 468 human kinases were screened for their ability to bind compound 1. […] The top two candidates were PIKFYVE (phosphoinositide kinase FYVE-type zinc finger containing) and PIP4K2C (phosphatidylinositol-5-phosphate 4-kinase). PIKFYVE is a kinase that is essential for mouse development (49) and that prevents endosome enlargement and cytoplasmic vacuolization (50, 51). PIP4K2C is a kinase that is not essential for mouse growth and viability, but it is essential for the immune system (52), mTORC1 signaling (53), and regulation of autophagy (54). The third candidate was MTOR, a kinase that regulates autophagy (55). Therefore, the binding constants (Kd) for all five members of the compound 1-family were determined for each of these three proteins from two independent titration curves, as shown for compound 1.

melanoma A375 cells = experiment: A375 cell viability (CellTiter-Glo ATP, trypan blue live cells); assay type: cell-based, human; details: 0.1 μM
Protocol: To reveal viability, cells were seeded into 96-well plates (1,000 cells/well), and the indicated compound was added the following day. Cells were cultured for four days before quantification of total cellular ATP. […] In separate 12-well plates, attached cells were collected by trypsinization, combined with unattached cells, and stained with trypan blue to identify dead cells. Vehicle was plotted as 0.001 μM compound in order to apply a logarithmic scale. Data were plotted as the mean±SEM for three independent experiments.
as §1, with “Results were the same using either heat-inactivated or normal fetal calf serum.” left out

lysosomes in U2OS cells = experiment: Ratiometric analysis of lysosomal pH (Oregon Green 488 dextran); assay type: cell-based, human; details: 1 μM
Protocol: U2OS cells were cultured for 4 hr with vehicle, 1 μM compound 1, or 50 mM ammonium chloride. The results of two independent experiments were averaged together. Data were analyzed by one-way ANOVA (p=0.0005) and Tukey's post-hoc test (p<0.0001). Scale bars indicate 10 μm. The results of three independent experiments were averaged together. […] Cells that had been transfected with LAMP1-RFP expression vector were then stained with LysoSensor Green DND-189, a fluorescent probe that fluoresces only in the acidic compartments of live cells. […] Bars represent 20 μm.
To determine the pH of individual lysosomes, dual-wavelength ratio imaging was conducted as previously describe (102), with minor modifications. U2OS and RAW264.7 cells were cultured in imaging chambers (Cellvis, Mountain View Calif., Cat #C4-1.5/h-N) in complete culture medium at 37° C. and 5% CO2. Cells were incubated overnight with 50 μg/mL Oregon Green 488 dextran (Invitrogen, Carlsbad, Calif., D7170). The following day, the cells were cultured with dextran-free complete culture medium for at least 2 h to ensure lysosomal targeting of the probe. Cells were then cultured with compound 1 for the indicated times and concentrations. […]

[2] = tested on: breast adenocarcinoma cells; experiment: Viability of breast adenocarcinoma cells; assay type: cell-based; details: Homo sapiens; breast adenocarcinoma cells; read-out: EC50
Protocol: FIG. 18 summarizes results from 13 human cell lines. All cells were seeded at the same cell density in a rich culture medium and assayed under identical conditions. Compound 1 efficacy is the ratio of cell viability with compound 1 to cell viability with chloroquine derivatives.

[3] = tested on: human foreskin fibroblasts; experiment: Proliferation/viability of human foreskin fibroblasts; assay type: cell-based; details: Fibroblast; human foreskin fibroblasts; read-out: EC50
Protocol: Concentration of each compound in the plate assay is indicated below the compound 1 plate.
as §1, with “Results were the same using either heat-inactivated or normal fetal calf serum.” left out

T1 sequence (Q9Y2I7 whole entry): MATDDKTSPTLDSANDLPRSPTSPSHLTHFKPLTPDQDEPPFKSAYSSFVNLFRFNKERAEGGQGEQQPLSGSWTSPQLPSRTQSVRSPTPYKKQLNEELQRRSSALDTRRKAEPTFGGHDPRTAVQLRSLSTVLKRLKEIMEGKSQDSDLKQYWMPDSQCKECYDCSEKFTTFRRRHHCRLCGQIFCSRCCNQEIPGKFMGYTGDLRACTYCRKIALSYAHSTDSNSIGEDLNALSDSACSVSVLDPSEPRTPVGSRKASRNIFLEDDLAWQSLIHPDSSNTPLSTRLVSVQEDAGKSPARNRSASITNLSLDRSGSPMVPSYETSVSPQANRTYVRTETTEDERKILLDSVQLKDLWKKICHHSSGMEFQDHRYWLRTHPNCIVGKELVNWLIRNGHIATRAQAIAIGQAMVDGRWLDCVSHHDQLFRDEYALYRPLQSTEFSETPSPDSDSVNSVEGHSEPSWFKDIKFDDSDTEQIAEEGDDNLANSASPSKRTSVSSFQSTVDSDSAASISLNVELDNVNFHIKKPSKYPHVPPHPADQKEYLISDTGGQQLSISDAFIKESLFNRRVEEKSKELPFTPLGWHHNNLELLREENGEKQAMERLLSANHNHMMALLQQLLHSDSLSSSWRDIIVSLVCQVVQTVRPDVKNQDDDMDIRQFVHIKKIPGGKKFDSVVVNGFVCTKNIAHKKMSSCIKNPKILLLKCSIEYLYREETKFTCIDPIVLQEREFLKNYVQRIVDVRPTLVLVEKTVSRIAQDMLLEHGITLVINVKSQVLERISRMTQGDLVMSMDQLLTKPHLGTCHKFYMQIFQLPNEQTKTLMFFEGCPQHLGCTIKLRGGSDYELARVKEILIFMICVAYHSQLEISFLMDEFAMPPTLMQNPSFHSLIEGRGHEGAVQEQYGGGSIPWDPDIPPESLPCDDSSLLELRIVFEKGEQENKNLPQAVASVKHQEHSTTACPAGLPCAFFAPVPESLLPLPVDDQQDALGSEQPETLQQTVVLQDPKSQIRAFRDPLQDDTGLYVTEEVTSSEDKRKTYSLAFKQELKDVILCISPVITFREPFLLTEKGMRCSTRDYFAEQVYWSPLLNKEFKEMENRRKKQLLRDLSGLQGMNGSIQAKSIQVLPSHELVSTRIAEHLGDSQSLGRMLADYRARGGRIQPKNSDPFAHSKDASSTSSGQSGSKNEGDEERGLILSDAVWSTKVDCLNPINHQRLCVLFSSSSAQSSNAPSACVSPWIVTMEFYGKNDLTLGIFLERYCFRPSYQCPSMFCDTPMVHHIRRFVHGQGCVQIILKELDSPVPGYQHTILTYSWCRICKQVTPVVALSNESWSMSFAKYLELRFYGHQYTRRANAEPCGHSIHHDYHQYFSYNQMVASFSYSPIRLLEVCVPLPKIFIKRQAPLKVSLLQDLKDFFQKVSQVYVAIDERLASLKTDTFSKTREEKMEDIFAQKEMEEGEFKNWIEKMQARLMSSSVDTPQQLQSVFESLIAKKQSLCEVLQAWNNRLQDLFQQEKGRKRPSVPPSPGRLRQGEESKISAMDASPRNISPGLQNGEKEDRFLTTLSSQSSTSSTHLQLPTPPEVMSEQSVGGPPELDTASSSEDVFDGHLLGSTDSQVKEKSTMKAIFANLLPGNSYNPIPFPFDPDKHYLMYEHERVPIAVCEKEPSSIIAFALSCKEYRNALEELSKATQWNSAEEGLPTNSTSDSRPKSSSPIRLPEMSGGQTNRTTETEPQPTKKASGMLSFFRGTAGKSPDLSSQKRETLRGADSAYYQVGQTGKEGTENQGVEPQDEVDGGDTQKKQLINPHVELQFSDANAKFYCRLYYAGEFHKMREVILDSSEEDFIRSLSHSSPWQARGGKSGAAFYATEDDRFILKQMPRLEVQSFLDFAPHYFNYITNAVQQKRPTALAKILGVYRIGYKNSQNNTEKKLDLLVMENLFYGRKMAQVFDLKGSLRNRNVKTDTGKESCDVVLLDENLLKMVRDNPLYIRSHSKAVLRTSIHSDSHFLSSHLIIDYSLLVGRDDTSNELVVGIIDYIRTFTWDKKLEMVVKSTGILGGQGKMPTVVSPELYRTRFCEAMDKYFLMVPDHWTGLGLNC

SMILES: C1=Nc2ccccc2/C1=C/NNc1nc(Nc2ccccc2)nc(N2CCOCC2)n1 [compound 1]
- Efficacy at inhibiting U2OS cell proliferation relative to HCQ or CQ (osteosarcoma U2OS cells): 21 times
- Effect on U2OS cells (osteosarcoma U2OS cells; 0.1 μM): reduced the proliferation rate
- Efficacy at arresting growth and proliferation relative to HCQ and CQ (osteosarcoma U2OS cells; cancer cells that depend on autophagy but are not addicted): 20 ×
- viability at 8 h, 10 µM [1]: 92%
- Standing within the family for PIKFYVE binding (PIKFYVE): the most potent member
- Kd (PIKFYVE; mean of two independent titration curves): 0.001 µM
- Effect on Melanoma A375 cells (melanoma A375 cells): killed
- Mean pH of lysosomes (lysosomes in U2OS cells; 4 h, untreated cells 5.3): 5.0
- Effect on lysosomal acidity (lysosomes in U2OS cells; 4 hours): did not affect lysosomal acidity significantly
- EC50 [2]: > 10 µM
- EC50 [3]: > 10 µM
